How the values were obtained:
Format in all cases: in vivo
Solanum nigrum (SOLNI) [1] = experiment: Pre-emergence glasshouse herbicide test; settings: pre-emergence (sprayed after one day cultivation), 1000 g/h, evaluated after 13 days, five point scale
Procedure: (§1) Seeds of a variety of test species are sown in standard soil in pots (Alopecurus myosuroides (ALOMY), Setaria faberi (SETFA), Echinochloa crus-galli (ECHCG), Solanum nigrum (SOLNI), Amaranthus retoflexus (AMARE), Ipomoea hederacea (IPOHE)). After cultivation for one day (pre-emergence) or after 8 days cultivation (post-emergence) under controlled conditions in a glasshouse (at 24/16° C., day/night; 14 hours light; 65% humidity), the plants are sprayed with an aqueous spray solution derived from the formulation of the technical active ingredient in acetone/water (50:50) solution containing 0.5% Tween 20 (polyoxyethelyene sorbitan monolaurate, CAS RN 9005-64-5). Compounds are applied at 1000 g/h. The test plants are then grown in a glasshouse under controlled conditions in a glasshouse (at 24/16° C., day/night; 14 hours light; 65% humidity) and watered twice daily. After 13 days for pre and post-emergence, the test is evaluated for the percentage damage caused to the plant. The biological activities are shown in the following table on a five point scale (5=80-100%; 4=60-79%; 3=40-59%; 2=20-39%; 1=0-19%).

[2] = system: Echinochloa crus-galli (ECHCG); experiment: Pre-emergence glasshouse herbicide test; settings: pre-emergence (sprayed after one day cultivation), 1000 g/h, evaluated after 13 days, five point scale
Procedure: as §1

[3] = system: Amaranthus retoflexus (AMARE); experiment: Pre-emergence glasshouse herbicide test; settings: pre-emergence (sprayed after one day cultivation), 1000 g/h, evaluated after 13 days, five point scale
Procedure: as §1

Setaria faberi (SETFA) [4] = experiment: Pre-emergence glasshouse herbicide test; settings: pre-emergence (sprayed after one day cultivation), 1000 g/h, evaluated after 13 days, five point scale
Procedure: as §1

[5] = system: Ipomoea hederacea (IPOHE); experiment: Pre-emergence glasshouse herbicide test; settings: pre-emergence (sprayed after one day cultivation), 1000 g/h, evaluated after 13 days, five point scale
Procedure: as §1

[6] = system: Alopecurus myosuroides (ALOMY); experiment: Pre-emergence glasshouse herbicide test; settings: pre-emergence (sprayed after one day cultivation), 1000 g/h, evaluated after 13 days, five point scale
Procedure: as §1

Solanum nigrum (SOLNI) [7] = experiment: Post-emergence glasshouse herbicide test; settings: post-emergence (sprayed after 8 days cultivation), 1000 g/h, evaluated after 13 days, five point scale
Procedure: as §1

[8] = system: Echinochloa crus-galli (ECHCG); experiment: Post-emergence glasshouse herbicide test; settings: post-emergence (sprayed after 8 days cultivation), 1000 g/h, evaluated after 13 days, five point scale
Procedure: as §1

[9] = system: Amaranthus retoflexus (AMARE); experiment: Post-emergence glasshouse herbicide test; settings: post-emergence (sprayed after 8 days cultivation), 1000 g/h, evaluated after 13 days, five point scale
Procedure: as §1

Setaria faberi (SETFA) [10] = experiment: Post-emergence glasshouse herbicide test; settings: post-emergence (sprayed after 8 days cultivation), 1000 g/h, evaluated after 13 days, five point scale
Procedure: as §1

[11] = system: Ipomoea hederacea (IPOHE); experiment: Post-emergence glasshouse herbicide test; settings: post-emergence (sprayed after 8 days cultivation), 1000 g/h, evaluated after 13 days, five point scale
Procedure: as §1

[12] = system: Alopecurus myosuroides (ALOMY); experiment: Post-emergence glasshouse herbicide test; settings: post-emergence (sprayed after 8 days cultivation), 1000 g/h, evaluated after 13 days, five point scale
Procedure: as §1

SMILES	percentage damage caused to the plant, PRE Application SOLNI (Solanum nigrum (SOLNI) [1])	percentage damage caused to the plant, PRE Application ECHCG [2]	percentage damage caused to the plant, PRE Application AMARE [3]	percentage damage caused to the plant, PRE Application SETFA (Setaria faberi (SETFA) [4])	percentage damage caused to the plant, PRE Application IPOHE [5]	percentage damage caused to the plant, PRE Application ALOMY [6]	percentage damage caused to the plant, POST Application SOLNI (Solanum nigrum (SOLNI) [7])	percentage damage caused to the plant, POST Application ECHCG [8]	percentage damage caused to the plant, POST Application AMARE [9]	percentage damage caused to the plant, POST Application SETFA (Setaria faberi (SETFA) [10])	percentage damage caused to the plant, POST Application IPOHE [11]	percentage damage caused to the plant, POST Application ALOMY [12]
CCc1cnn(-c2ccc(C(F)(F)F)nc2C)c(=O)c1O [Compound 1.022]	5 (5=80-100%)	5 (5=80-100%)	5 (5=80-100%)	4 (4=60-79%)	4 (4=60-79%)	4 (4=60-79%)	5 (5=80-100%)	5 (5=80-100%)	5 (5=80-100%)	4 (4=60-79%)	4 (4=60-79%)	4 (4=60-79%)
Cc1nc(C(F)(F)F)ccc1-n1ncc(Br)c(O)c1=O [Compound 1.023]	5 (5=80-100%)	5 (5=80-100%)	5 (5=80-100%)	5 (5=80-100%)	5 (5=80-100%)	3 (3=40-59%)	5 (5=80-100%)	5 (5=80-100%)	5 (5=80-100%)	5 (5=80-100%)	5 (5=80-100%)	3 (3=40-59%)
C=C(C)c1cnn(-c2ccc(C(F)(F)F)nc2C)c(=O)c1O [Compound 1.024]	5 (5=80-100%)	5 (5=80-100%)	5 (5=80-100%)	5 (5=80-100%)	5 (5=80-100%)	5 (5=80-100%)	5 (5=80-100%)	5 (5=80-100%)	5 (5=80-100%)	5 (5=80-100%)	5 (5=80-100%)	5 (5=80-100%)
CSc1cnn(-c2ccc(C(F)(F)F)nc2C)c(=O)c1O [Compound 1.025]	5 (5=80-100%)	5 (5=80-100%)	5 (5=80-100%)	5 (5=80-100%)	5 (5=80-100%)	2 (2=20-39%)	5 (5=80-100%)	5 (5=80-100%)	5 (5=80-100%)	5 (5=80-100%)	5 (5=80-100%)	2 (2=20-39%)
Cc1c(-n2ncc(C#N)c(O)c2=O)ccc(S(C)(=O)=O)c1C1=NOCC1 [Compound 1.026]	5 (5=80-100%)	5 (5=80-100%)	5 (5=80-100%)	5 (5=80-100%)	5 (5=80-100%)	1 (1=0-19%)	5 (5=80-100%)	5 (5=80-100%)	5 (5=80-100%)	5 (5=80-100%)	5 (5=80-100%)	1 (1=0-19%)

Reference: patent publication US20140323300A1, “HERBICIDAL COMPOUNDS” (SYNGENTA LIMITED, priority 2011, published 2014)
